± gives the uncertainty stated by the source.
Assay: xn = mol fraction of the nth substance listed

| viscosity (298.15 K, 101 kPa, x2 = 0) | viscosity (298.15 K, 101 kPa, x2 = 0.4287) | viscosity (298.15 K, 101 kPa, x2 = 0.5246) | viscosity (298.15 K, 101 kPa, x2 = 0.9671) | viscosity (313.15 K, 101 kPa, x2 = 0.4287) | viscosity (313.15 K, 101 kPa, x2 = 0.718) | viscosity (313.15 K, 101 kPa, x2 = 0.8803) | viscosity (323.15 K, 101 kPa, x1 = 0.01507) | viscosity (323.15 K, 101 kPa, x2 = 0.8313) | viscosity (323.15 K, 101 kPa, x2 = 0.8803) | SMILES | viscosity (293 K, 100 kPa, x2 = 0.3333) | viscosity (298 K, 100 kPa, x2 = 0.3333) | viscosity (318 K, 100 kPa, x2 = 0.3333) | viscosity (328 K, 100 kPa, x2 = 0.3333) | viscosity (333 K, 100 kPa, x2 = 0.3333) |
| --- | --- | --- | --- | --- | --- | --- | --- | --- | --- | --- | --- | --- | --- | --- | --- |
| 196 ± 73 mPa·s | 19.3 ± 1.4 mPa·s | 11.58 ± 0.88 mPa·s | 0.729 ± 0.076 mPa·s | 11.94 ± 0.91 mPa·s | 2.98 ± 0.27 mPa·s | 1.13 ± 0.11 mPa·s | 0.447 ± 0.051 mPa·s | 1.31 ± 0.13 mPa·s | 0.972 ± 0.097 mPa·s | CCCC[n+]1ccc(C)cc1.F[B-](F)(F)F + CO |  |  |  |  |  |
|  |  |  |  |  |  |  |  |  |  | CCCCCCCCCC(=O)O + CCCCCCCCCCCCCC[P+](CCCCCC)(CCCCCC)CCCCCC.[Cl-] | 350 ± 140 mPa·s | 260 ± 110 mPa·s | 94 ± 38 mPa·s | 63 ± 25 mPa·s | 53 ± 21 mPa·s |

— the CheMixHub ionic liquid set
